{"source": "patent US20200010479A1", "about": "“INHIBITORS OF MICROBIAL BETA-GLUCURONIDASE ENZYMES AND USES THEREOF” (THE UNIVERSITY OF NORTH CAROLINA AT CHAPEL HILL, priority 2017, published 2020)", "data": [{"tested_on": "GUS activity in human fecal extracts", "test": "not given", "details": "cited from earlier work", "values": [{"smiles": "Clc1ccc2c(c1)C(N1CCNCC1)=Nc1ccccc1O2", "note": "[amoxapine]", "block of GUS activity in human fecal extracts": "incompletely blocks"}]}, {"molecular_target": "E. coli GUS (Escherichia coli, UniProt P05804)", "sequence (P05804 whole entry)": "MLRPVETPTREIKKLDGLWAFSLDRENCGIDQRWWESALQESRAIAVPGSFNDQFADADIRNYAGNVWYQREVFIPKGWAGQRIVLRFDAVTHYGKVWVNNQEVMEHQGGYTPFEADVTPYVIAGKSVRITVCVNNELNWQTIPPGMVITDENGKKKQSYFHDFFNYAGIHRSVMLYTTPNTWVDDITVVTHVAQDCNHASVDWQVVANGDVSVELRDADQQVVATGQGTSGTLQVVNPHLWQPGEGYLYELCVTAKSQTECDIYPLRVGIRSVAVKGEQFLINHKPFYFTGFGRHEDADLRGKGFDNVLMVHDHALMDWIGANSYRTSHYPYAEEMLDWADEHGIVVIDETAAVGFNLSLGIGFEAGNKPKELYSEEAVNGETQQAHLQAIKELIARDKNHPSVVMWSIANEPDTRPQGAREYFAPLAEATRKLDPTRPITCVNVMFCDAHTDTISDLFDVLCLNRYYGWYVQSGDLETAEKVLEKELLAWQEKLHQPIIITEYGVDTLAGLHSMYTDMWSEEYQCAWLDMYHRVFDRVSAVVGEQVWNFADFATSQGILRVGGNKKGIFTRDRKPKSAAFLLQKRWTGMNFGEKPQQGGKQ", "test": "In vitro EcGUS inhibition, cleavage of PNPG by purified E. coli GUS", "type": "biochemical", "details": "PNPG substrate, 37° C., 2 hours", "procedure": "To assess GUS inhibition, cleavage of p-nitrophenyl-β-D-glucuronide (PNPG) by purified E. coli GUS in the presence of inhibitor was measured. The reaction was performed in 96-well clear-bottom plates at a volume of 50 μL. Each reaction contained 5 μL of 100 nM E. coli GUS, 5 μL of inhibitor at various concentrations, 10 μL of 250 mM HEPES and 250 mM NaCl assay buffer, and 30 μL of 1.5 mM PNPG. The reaction was initiated by addition of PNPG and incubated at 37° C. for 2 hours. End point absorbance values at 410 nm were measured using a PHERAstar Plus microplate reader. The resulting data were fit with a four-parameter logistic log function in SigmaPlot 13.0 to determine IC50 values. IC50 was defined as the concentration of inhibitor that yields a 50% reduction in product formation at equilibrium.", "units": {"IC50": "nM"}, "values": [{"smiles": "C1CCN(c2nc3sc4c(N5CCNCC5)nnnc4c3c3c2CCCC3)CC1", "note": "[Compound 13]", "IC50": "500 ± 200"}, {"smiles": "CN(C)c1nc(N2CCNCC2)c2sc3nc(-c4ccccc4)ccc3c2n1", "note": "[Compound 25]", "IC50": "190 ± 90"}, {"smiles": "C[C@@H]1CN(c2nnnc3c2sc2nc(N4CCOCC4)c4c(c23)CCCC4)CCN1", "note": "[Compound 6]", "IC50": "2400 ± 400"}, {"smiles": "CN1CCN(c2nnnc3c2sc2nc(N4CCOCC4)c4c(c23)CCCC4)CC1", "note": "[Compound 2]", "IC50": "37600 ± 700"}, {"smiles": "CNc1nc(N2CCNCC2)c2sc3nc(N(C)C)ccc3c2n1", "note": "[Compound 28]", "IC50": "42 ± 6"}, {"smiles": "c1cnc2sc3c(N4CCNCC4)ncnc3c2c1", "note": "[Compound 30]", "IC50": "80 ± 20"}, {"smiles": "C1CCc2c(c(N3CCOCC3)nc3sc4c(N5CC6CC5CN6)nnnc4c23)C1", "note": "(centres unmarked) [Compound 5]", "IC50": "9000 ± 2000"}, {"smiles": "C1CCc2c(c(N3CCOCC3)nc3sc4c(N5CCCNCC5)nnnc4c23)C1", "note": "[Compound 8]", "IC50": "9000 ± 2000"}, {"smiles": "OCCNc1nc(N2CCNCC2)c2sc3nc(-c4ccccc4)ccc3c2n1", "note": "[Compound 26]", "IC50": "120 ± 20"}, {"smiles": "CNc1nc(N2CCNCC2)c2sc3ncccc3c2n1", "note": "[Compound 31]", "IC50": "36 ± 2"}, {"smiles": "C1CCC(Nc2nc3sc4c(N5CCNCC5)nnnc4c3c3c2CCCC3)CC1", "note": "[Compound 14]", "IC50": "800 ± 200"}, {"smiles": "NCCNc1nnnc2c1sc1nc(N3CCOCC3)c3c(c12)CCCC3", "note": "[Compound 9]", "IC50": "5600 ± 500"}, {"smiles": "c1ccc(-c2ccc3c(n2)sc2c(N4CCNCC4)nnnc23)cc1", "note": "[Compound 22]", "IC50": "150 ± 50"}, {"smiles": "c1cc2c(nc1N1CCOCC1)sc1c(N3CCNCC3)nnnc12", "note": "[Compound 19]", "IC50": "170 ± 40"}, {"smiles": "CNc1ccc2c(n1)sc1c(N3CCNCC3)nc(NC)nc12", "note": "[Compound 29]", "IC50": "40 ± 8"}, {"smiles": "CNc1nc(N2CCNCC2)c2sc3nc(-c4ccccc4)ccc3c2n1", "note": "[Compound 24]", "IC50": "180 ± 90"}, {"smiles": "C[C@H]1CN(c2nnnc3c2sc2nc(N4CCOCC4)c4c(c23)CCCC4)CCN1", "note": "[Compound 7]", "IC50": "2400 ± 300"}, {"smiles": "c1ccc(CNc2nc3sc4c(N5CCNCC5)nnnc4c3c3c2CCCC3)cc1", "note": "[Compound 17]", "IC50": "190 ± 40"}, {"smiles": "CN(C)c1ccc2c(n1)sc1c(N3CCNCC3)nnnc12", "note": "[Compound 27]", "IC50": "80 ± 30"}, {"smiles": "CNc1nc(N2CCNCC2)c2sc3nc(N4CCOCC4)ccc3c2n1", "note": "[Compound 21]", "IC50": "100 ± 20"}, {"smiles": "C1CCc2c(c(N3CCOCC3)nc3sc4c(NC5CCNCC5)nnnc4c23)C1", "note": "[Compound 4]", "IC50": "30000 ± 10000"}, {"smiles": "CN(C)c1nc2sc3c(N4CCNCC4)nnnc3c2c2c1CCCC2", "note": "[Compound 15]", "IC50": "130 ± 10"}, {"smiles": "C1CCc2c(c(N3CCNCC3)nc3sc4c(N5CCNCC5)nnnc4c23)C1", "note": "[Compound 12]", "IC50": "130 ± 10"}, {"smiles": "c1ccc(-c2ccc3c(n2)sc2c(N4CCNCC4)ncnc23)cc1", "note": "[Compound 23]", "IC50": "130 ± 30"}]}, {"tested_on": "bacteria cultured in vitro", "test": "not given", "details": "cited from earlier work", "values": [{"smiles": "Clc1ccc2c(c1)C(N1CCNCC1)=Nc1ccccc1O2", "note": "[amoxapine]", "viability of bacteria cultured in vitro": "reduced the viability"}]}, {"tested_on": "gut microbial GUS enzymes", "test": "not given", "details": "co-treatment with irinotecan; cited from earlier work", "values": [{"smiles": "CCOc1ccc(NC(=S)N(CCO)Cc2cc3cc(C)cc(C)c3[nH]c2=O)cc1", "note": "[Inh1]", "gut toxicity and diarrhea": "alleviated gut toxicity and diarrhea"}]}, {"tested_on": "panel of purified GUS enzymes present in the human gut microbiota", "test": "SN-38-G processing by panel of purified GUS enzymes, with inhibitors", "type": "biochemical", "details": "enzymes other than E. coli GUS", "values": [{"smiles": "CCOc1ccc(NC(=S)N(CCO)Cc2cc3cc(C)cc(C)c3[nH]c2=O)cc1", "note": "[Inh1]", "effects on other GUS enzymes, including others from the L1 category": "weak effects"}]}, {"tested_on": "not given", "test": "not given", "details": "rats; cited from earlier work", "values": [{"smiles": "CCOc1ccc(NC(=S)N(CCO)Cc2cc3cc(C)cc(C)c3[nH]c2=O)cc1", "note": "[Inh1]", "NSAID-induced intestinal anastomosis after surgical resection": "reduce NSAID-induced intestinal anastomosis"}]}]}
